Assays:
cocklebur = assay: Test B pre/postemergence cocklebur; type: in vivo, Xanthium strumarium
In short: (§1)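 Test chemicals in a non-phytotoxic solvent mixture with surfactant were sprayed preemergence onto planted seeds and postemergence onto plants 2 to 18 cm tall (1- to 4-leaf stage). After twelve to sixteen days in a greenhouse, injury was visually rated against untreated controls from 0 (no effect) to 10 (complete control).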

rice = assay: Test B flood test rice; type: in vivo, Oryza sativa
In short: (§2)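 Each value is a visual injury score relative to controls, with 10 meaning complete control and 0 no effect. Evaluation took place twelve to sixteen days after the 2-leaf-stage plants were treated and kept in the greenhouse.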

velvetleaf = assay: Test B pre/postemergence velvetleaf; type: in vivo, Abutilon theophrasti
In short: as §1

bamyardgrass = assay: Test B flood test barnyardgrass; type: in vivo, Echinochloa crus-galli
In short: as §2

purple nutsedge = assay: Test B pre/postemergence purple nutsedge; type: in vivo, Cyperus rotundus
In short: as §1

corn = assay: Test B pre/postemergence corn; type: in vivo, Zea mays
In short: as §1

smallflower flatsedge = assay: Test B flood test smallflower flatsedge; type: in vivo, Cyperus difformis
In short: as §2

blackgrass = assay: Test B pre/postemergence blackgrass; type: in vivo, Alopecurus myosuroides
In short: as §1

surinam grass = assay: Test B pre/postemergence surinam grass; type: in vivo, Brachiaria decumbens
In short: as §1

rape = assay: Test B pre/postemergence rape; type: in vivo, Brassica napus
In short: as §1

wild oat = assay: Test B pre/postemergence wild oat; type: in vivo, Avena fatua
In short: as §1

wheat = assay: Test B pre/postemergence wheat; type: in vivo, Triticum aestivum
In short: as §1

morningglory = assay: Test B pre/postemergence morningglory; type: in vivo, Ipomoea hederacea
In short: as §1

duck salad = assay: Test B flood test duck salad; type: in vivo, Heteranthera limosa
In short: as §2

pigweed = assay: Test B pre/postemergence pigweed; type: in vivo, Amaranthus retroflexus
In short: as §1

[1] = Postemergence, Rate 62 g/ha, scale 0 to 10, 0 is no effect, 10 is complete control
[2] = Postemergence, Rate 125 g/ha, scale of 0 to 10 where 0 is no effect and 10 is complete control
[3] = Postemergence, Rate 250 g/ha, scale of 0 to 10, 0 is no effect, 10 is complete control
[4] = Postemergence, Rate 500 g/ha, scale of 0 to 10 where 0 is no effect and 10 is complete control
[5] = Preemergence, Rate 62 g/ha, scale of 0 to 10 where 0 is no effect and 10 is complete control
[6] = Preemergence, Rate 125 g/ha, scale of 0 to 10 where 0 is no effect and 10 is complete control
[7] = Preemergence, Rate 250 g/ha, scale 0 to 10 (0 no effect, 10 complete control)
[8] = Preemergence, Rate 500 g/ha, scale of 0 to 10 where 0 is no effect and 10 is complete control
[9] = Rate 62 g/ha, flood test species, Pre-emergence, visual evaluation after twelve to sixteen days
[10] = Rate 125 g/ha, under heading Pre-emergence, flood test species, visual evaluation after twelve to sixteen days
[11] = Rate 250 g/ha, Pre-emergence (flood test species), scale 0 to 10, 0 is no effect, 10 is complete control
[12] = Rate 500 g/ha, Pre-emergence section of Table B, 0 to 10 scale (0 no effect, 10 complete control)

CC(C)N(C(=O)n1oc(=O)n(CC(=O)C2CCC2)c1=O)c1ccc(F)cc1F [Compound 642]
5: Plant response rating, B. signalgrass (surinam grass; [7])
3: Velvetleaf plant response rating (velvetleaf; [3]) | Plant response rating, Velvetleaf (velvetleaf; [8]) | Plant response rating, Morningglory (morningglory; [4])
0: Plant response rating, Cocklebur (cocklebur; [1]) | Cocklebur plant response rating (cocklebur; [2]) | Cocklebur plant response rating (cocklebur; [3]) | Plant response rating, Cocklebur (cocklebur; [4]) | Cocklebur plant response rating (cocklebur; [5]) | Cocklebur plant response rating (cocklebur; [6]) | Plant response rating, Cocklebur (cocklebur; [7]) | Plant response rating, Cocklebur (cocklebur; [8]) | Plant response rating, Rice (0 to 10 scale, 0 is no effect, 10 is complete control) (rice; [9]) | Rice plant response rating (0 to 10 scale, 0 is no effect, 10 is complete control) (rice; [10]) | Rice plant response rating (rice; [11]) | Rice plant response rating (rice; [12]) | Plant response rating, Velvetleaf (velvetleaf; [1]) | Velvetleaf plant response rating (velvetleaf; [2]) | Velvetleaf plant response rating (velvetleaf; [5]) | Velvetleaf plant response rating (velvetleaf; [6]) | Plant response rating, Velvetleaf (velvetleaf; [7]) | Plant response rating, Barnyardgrass (0 to 10 scale, 0 is no effect, 10 is complete control) (bamyardgrass; [9]) | Barnyardgrass plant response rating (0 to 10 scale, 0 is no effect, 10 is complete control) (bamyardgrass; [10]) | Barnyardgrass plant response rating (bamyardgrass; [11]) | Barnyardgrass plant response rating (bamyardgrass; [12]) | Plant response rating, Nutsedge (purple nutsedge; [1]) | Nutsedge plant response rating (purple nutsedge; [2]) | Nutsedge plant response rating (purple nutsedge; [3]) | Plant response rating, Nutsedge (purple nutsedge; [4]) | Nutsedge plant response rating (purple nutsedge; [5]) | Nutsedge plant response rating (purple nutsedge; [6]) | Plant response rating, Nutsedge (purple nutsedge; [7]) | Plant response rating, Nutsedge (purple nutsedge; [8]) | Plant response rating, Corn (corn; [1]) | Corn plant response rating (corn; [2]) | Corn plant response rating (corn; [3]) | Plant response rating, Corn (corn; [4]) | Corn plant response rating (corn; [5]) | Corn plant response rating (corn; [6]) | Plant response rating, Corn (corn; [7]) | Plant response rating, Corn (corn; [8]) | Plant response rating, S. Flatsedge (0 to 10 scale, 0 is no effect, 10 is complete control) (smallflower flatsedge; [9]) | S. Flatsedge plant response rating (0 to 10 scale, 0 is no effect, 10 is complete control) (smallflower flatsedge; [10]) | S. Flatsedge plant response rating (smallflower flatsedge; [11]) | S. Flatsedge plant response rating (smallflower flatsedge; [12]) | Plant response rating, Blackgrass (blackgrass; [1]) | Blackgrass plant response rating (blackgrass; [2]) | Blackgrass plant response rating (blackgrass; [5]) | Blackgrass plant response rating (blackgrass; [6]) | Plant response rating, B. signalgrass (surinam grass; [1]) | Plant response rating, B. signalgrass (surinam grass; [2]) | B. signalgrass plant response rating (surinam grass; [3]) | Plant response rating, B. signalgrass (surinam grass; [4]) | B. signalgrass plant response rating (surinam grass; [5]) | Plant response rating, Rape (rape; [1]) | Rape plant response rating (rape; [2]) | Rape plant response rating (rape; [3]) | Plant response rating, Rape (rape; [4]) | Rape plant response rating (rape; [5]) | Wild oats plant response rating (wild oat; [5]) | Wild oats plant response rating (wild oat; [6]) | Plant response rating, Wheat (wheat; [1]) | Wheat plant response rating (wheat; [2]) | Wheat plant response rating (wheat; [3]) | Wheat plant response rating (wheat; [5]) | Wheat plant response rating (wheat; [6]) | Plant response rating, Wheat (wheat; [7]) | Plant response rating, Wheat (wheat; [8]) | Plant response rating, Morningglory (morningglory; [1]) | Morningglory plant response rating (morningglory; [2]) | Morningglory plant response rating (morningglory; [3]) | Morningglory plant response rating (morningglory; [5]) | Morningglory plant response rating (morningglory; [6]) | Plant response rating, Morningglory (morningglory; [7]) | Plant response rating, Morningglory (morningglory; [8]) | Plant response rating, Ducksalad (0 to 10 scale, 0 is no effect, 10 is complete control) (duck salad; [9]) | Ducksalad plant response rating (0 to 10 scale, 0 is no effect, 10 is complete control) (duck salad; [10]) | Ducksalad plant response rating (duck salad; [11]) | Ducksalad plant response rating (duck salad; [12]) | Plant response rating, Redroot pigweed (pigweed; [1]) | Redroot pigweed plant response rating (pigweed; [2]) | Redroot pigweed plant response rating (pigweed; [3]) | Redroot pigweed plant response rating (pigweed; [5]) | Redroot pigweed plant response rating (pigweed; [6])
1: Plant response rating, Wild oats (wild oat; [1]) | Wild oats plant response rating (wild oat; [2]) | Wild oats plant response rating (wild oat; [3])
2: B. signalgrass plant response rating (surinam grass; [6]) | Rape plant response rating (rape; [6]) | Plant response rating, Wild oats (wild oat; [7]) | Plant response rating, Redroot pigweed (pigweed; [7])
6: Blackgrass plant response rating (blackgrass; [3]) | Plant response rating, Blackgrass (blackgrass; [4])
8: Plant response rating, B. signalgrass (surinam grass; [8]) | Plant response rating, Redroot pigweed (pigweed; [8])
7: Plant response rating, Blackgrass (blackgrass; [8])
9: Plant response rating, Rape (rape; [8])
4: Plant response rating, Blackgrass (blackgrass; [7]) | Plant response rating, Rape (rape; [7]) | Plant response rating, Wild oats (wild oat; [8])
